These results are taken from patent US20260242395A1, “AMINOHETEROARYL KINASE INHIBITORS” (ALLORION THERAPEUTICS INC, priority 2022, published 2026).

In one experiment the target is T1, CDK4/CyclinD1 (Homo sapiens, UniProt P11802).
T1 construct: purchased ProQinase 0142-0143-1
The experiment is described as follows: CDK4/CyclinD1 kinase inhibitory activity (Caliper mobility shift). Format: biochemical. The settings on record: enzyme 20 nM, ATP 672 uM, 28° C. 30 min; read-out: CDK4/Cyclin D1 IC50. As to the method:
CDK4/CyclinD1 kinase inhibitory activity (IC50): 5 μl of various dilutions of test compound in 1× kinase buffer (20 mM HEPES, pH 7.5, 10 mM MgCl2, 2 mM DTT and 0.01% Triton X-100) was mixed with 10 μL of either CDK4/Cyclin D1 (ProQinase, 0142-0143-1 #, final concentration 20 nM in 1× Kinase buffer) or in 384 plates and incubated at room temperature for 10 min. To initiate each reaction, 10 μL of peptide solution containing fluorescently-labeled-peptide 8(5-FAM-IPTSPITTTYFFFKKK-COOH, GL, 112396 #, final concentration 3000 nM) and ATP (final concentration 672 uM for CDK4/CyclinD1) in 1×Kinase buffer was added to each of the wells containing test compound and CDK4/CyclinD1 mixture. The reaction is then allowed to proceed at 28° C. for 30 min and terminated by the addition of 25 μL stop buffer (100 mM HEPES pH 7.5, 50 mM EDTA, 0.2% Coating Reagent #3 (Perkin Elmer, 760050 #) and 0.015% Brij-35).
(§1) Following the kinase reaction, Caliper EZ reader II (Downstream voltages: −500V, Upstream voltages: −2250V, Base pressure −0.5 PSI, Screen pressure −1.2 PSI) was used to separate the phosphorylated (product) and the unphosphorylated (substrate) fluorescently-labeled peptide 8 based on their different mobility. Both substrate and product were measured and the ratio of these values were used to generate % conversion by Caliper EZ reader II. These conversion values were then transformed into % inhibition of kinase activity using the formula: % Inhibition=[(MA−X)/(MA−MI)]×100% where MA=conversion value of DMSO only controls, MI=conversion value of no enzyme controls and X=conversion value at any given compound dose. IC50 values were then calculated by plotting dose-response curves and then using the XLfit application in Excel software.

The target in a further experiment is T2, CDK6/CyclinD3 (Homo sapiens, UniProt Q00534).
T2 construct: purchased Carna 04-107
T2 sequence (Q00534 whole entry): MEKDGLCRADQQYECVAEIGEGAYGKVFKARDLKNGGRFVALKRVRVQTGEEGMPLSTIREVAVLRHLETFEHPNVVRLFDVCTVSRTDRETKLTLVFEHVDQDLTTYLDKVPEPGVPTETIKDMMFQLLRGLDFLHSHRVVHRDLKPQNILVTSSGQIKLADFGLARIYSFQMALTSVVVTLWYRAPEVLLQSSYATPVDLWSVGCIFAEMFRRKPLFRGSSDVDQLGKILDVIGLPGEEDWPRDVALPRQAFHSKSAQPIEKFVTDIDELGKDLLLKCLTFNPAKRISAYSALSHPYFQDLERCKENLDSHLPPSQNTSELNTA
T2 sequence (P30281 whole entry partner): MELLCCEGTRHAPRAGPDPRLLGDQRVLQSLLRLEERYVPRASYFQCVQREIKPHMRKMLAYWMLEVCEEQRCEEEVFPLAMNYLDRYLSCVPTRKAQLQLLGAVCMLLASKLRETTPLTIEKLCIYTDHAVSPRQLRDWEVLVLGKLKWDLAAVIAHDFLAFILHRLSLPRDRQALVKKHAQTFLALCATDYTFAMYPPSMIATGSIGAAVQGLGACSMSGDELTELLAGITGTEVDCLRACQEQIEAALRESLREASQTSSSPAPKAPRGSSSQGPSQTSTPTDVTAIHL
The experiment is described as follows: CDK6/CyclinD3 kinase inhibitory activity (Caliper mobility shift). Type of experiment: biochemical. The settings on record: enzyme 15 nM, ATP 800 μM, 28° C. 30 min; read-out: CDK6/Cyclin D3 IC50. As to the method:
CDK6/CyclinD3 kinase inhibitory activity (IC50): 5 μl of various dilutions of test compound in 1× kinase buffer (50 mM HEPES pH 7.5, 10 mM MgCl2, 2 mM DTT and 0.01% Brij-35) was mixed with 10 μL of CDK6/CyclinD3 (Carna, 04-107 #, final concentration 15 nM in 1× Kinase buffer) in 384 plates and incubated at room temperature for 10 min. To initiate each reaction, 10 μL of peptide solution containing fluorescently-labeled -peptide 8(5-FAM-IPTSPITTTYFFFKKK-COOH, GL, 112396 #, final concentration 3000 nM) and ATP (final concentration 800 μM for CDK6/CyclinD3 in 1× Kinase buffer was added to each of the wells containing test compound and CDK6/CyclinD3. The reaction is then allowed to proceed at 28° C. for 30 min and terminated by the addition of 25 μL stop buffer (100 mM HEPES pH 7.5, 50 mM EDTA, 0.2% Coating Reagent #3 (Perkin Elmer, 760050 #) and 0.015% Brij-35).
as §1

Structures are written as SMILES. pIC50: −log10 of the molar value. Some results are limits rather than exact numbers.

T1 sequence (P11802 whole entry): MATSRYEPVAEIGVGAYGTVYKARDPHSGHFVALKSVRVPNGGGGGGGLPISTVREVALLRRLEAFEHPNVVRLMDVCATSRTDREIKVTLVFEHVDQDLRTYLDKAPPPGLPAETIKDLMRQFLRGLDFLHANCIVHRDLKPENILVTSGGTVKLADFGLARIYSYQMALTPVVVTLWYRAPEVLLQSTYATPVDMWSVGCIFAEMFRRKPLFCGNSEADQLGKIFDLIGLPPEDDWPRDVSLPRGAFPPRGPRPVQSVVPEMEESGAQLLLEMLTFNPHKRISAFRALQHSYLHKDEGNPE
T1 sequence (P24385 whole entry partner): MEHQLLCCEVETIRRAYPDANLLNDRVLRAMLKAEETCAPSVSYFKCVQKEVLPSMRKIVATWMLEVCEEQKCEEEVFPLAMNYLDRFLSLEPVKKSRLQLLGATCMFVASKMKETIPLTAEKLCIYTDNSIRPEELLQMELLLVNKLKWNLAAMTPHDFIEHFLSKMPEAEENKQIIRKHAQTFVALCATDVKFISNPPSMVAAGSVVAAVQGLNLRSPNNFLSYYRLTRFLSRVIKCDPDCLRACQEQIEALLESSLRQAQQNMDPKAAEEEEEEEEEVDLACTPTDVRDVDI

Take `Cc1cc(C(C)(C)O)c2cc(-c3nc(N[C@@H]4CCOC[C@H]4O)ncc3Cl)ccc2n1` [Example 4, (3S,4R)-4-((5-chloro-4-(4-(2-hydroxypropan-2-yl)-2-methylquinolin-6-yl)pyrimidin-2-yl)amino)tetrahydro-2H-pyran-3-ol]: the pIC50 on CDK4/CyclinD1 and on CDK6/CyclinD3 was 6.00 to 7.00 throughout.

For the compound `CC(C)(O)c1cnc2c(F)cc(-c3nc(N[C@@H]4CCOC[C@H]4O)ncc3C#N)cc2c1` [Example 2, 4-(8-fluoro-3-(2-hydroxypropan-2-yl)quinolin-6-yl)-2-(((3S,4R)-3-hydroxytetrahydro-2H-pyran-4-yl)amino)pyrimidine-5-carbonitrile], the pIC50 on CDK4/CyclinD1 is 7.00 to 8.00; at CDK6/CyclinD3, 6.00 to 7.00.

In the case of `[2H]c1nc(N[C@@H]2CCOC[C@H]2O)nc(-c2cc(F)c3nc([2H])c4c(c3c2)CNC2(CC2)C4)c1F` [Example 71], the pIC50 on CDK4/CyclinD1 is > 8.00; at CDK6/CyclinD3 it was 6.00 to 7.00.

Turning to `CNC(C)c1cnc2c(F)cc(-c3nc(N[C@@H]4CCOC[C@H]4O)ncc3Cl)cc2c1C` (single isomer, unassigned) [Example 48b], the pIC50 is 7.00 to 8.00 on CDK4/CyclinD1 and 6.00 to 7.00 at CDK6/CyclinD3.

Consider `CC1(C)Cc2cnc3c(F)cc(-c4nc(N[C@@H]5COC[C@H]5O)ncc4Cl)cc3c2CN1` [Example 50], for which the pIC50 is 7.00 to 8.00 on CDK4/CyclinD1 and ≤ 6.00 on CDK6/CyclinD3.

In the case of `O[C@@H]1COCC[C@H]1Nc1ncc(Cl)c(-c2cc(F)c3ncc(C4(O)CC4)c(Cl)c3c2)n1` [Example 44], the pIC50 on CDK4/CyclinD1 is > 8.00; at CDK6/CyclinD3, 7.00 to 8.00.

`[2H]c1nc(N[C@@H]2CCOC[C@H]2O)nc(-c2cc(F)c3nc(C)c(C(C)O)c(C)c3c2)c1Cl` (single isomer, unassigned) [Example 85b]: the pIC50 is > 8.00 at CDK4/CyclinD1 and 7.00 to 8.00 on CDK6/CyclinD3.

`[2H]c1nc(N[C@@H]2CCOC[C@H]2O)nc(-c2cc(F)c3nc(C)c4c(c3c2)CNC(C)(C)C4)c1F` [Example 105]: the pIC50 is > 8.00 on CDK4/CyclinD1 and 6.00 to 7.00 at CDK6/CyclinD3.

Consider `Cc1nc2c(cnc3ccc(-c4nc(N[C@@H]5CCOC[C@H]5O)ncc4Cl)cc32)[nH]1` [Example 10, (3S,4R)-4-((5-chloro-4-(2-methyl-3H-imidazo[4,5-c]quinolin-8-yl)pyrimidin-2-yl)amino)tetrahydro-2H-pyran-3-ol], for which the figures for the pIC50 at CDK4/CyclinD1 and on CDK6/CyclinD3 were 6.00 to 7.00 and ≤ 6.00, respectively.

Consider `CC1NCCc2cnc3c(F)cc(-c4nc(N[C@@H]5CCOC[C@H]5O)ncc4Cl)cc3c21` (single isomer, unassigned) [Example 31b], for which the pIC50 is > 8.00 on CDK4/CyclinD1 and 6.00 to 7.00 at CDK6/CyclinD3.

In the case of `COC1c2cnc3c(F)cc(-c4nc(N[C@@H]5CCOC[C@H]5O)ncc4F)cc3c2CNC1(C)C` (single isomer, unassigned) [Example 108b], the pIC50 at CDK4/CyclinD1 was > 8.00; at CDK6/CyclinD3, 6.00 to 7.00.

As to `[2H]c1nc(N[C@@H]2CCOC[C@H]2O)nc(-c2cc(F)c3nc(C)c(C(C)O)c(C)c3c2)c1Cl` (single isomer, unassigned) [Example 85a], the pIC50 at CDK4/CyclinD1 was > 8.00; on CDK6/CyclinD3 it was 7.00 to 8.00.

In the case of `[2H]c1nc2c(F)cc(-c3nc(N[C@@H]4CCOC[C@H]4O)ncc3F)cc2c2c1CC1(CC1)NC2` [Example 70], the pIC50 was > 8.00 at CDK4/CyclinD1 and 6.00 to 7.00 at CDK6/CyclinD3.

As to `Cc1nc2c(F)cc(-c3nc(N[C@@H]4CCOC[C@H]4O)ncc3Cl)cc2cc1C1CCCN1` (single isomer, unassigned) [Example 57b], the figures for the pIC50 on CDK4/CyclinD1 and at CDK6/CyclinD3 were 7.00 to 8.00 and ≤ 6.00, respectively.

Regarding `CC1(C)NCc2c(cnc3c(F)cc(-c4nc(N[C@@H]5CCOC[C@H]5O)ncc4F)cc23)C1O` (single isomer, unassigned) [Example 106a], the pIC50 was > 8.00 on CDK4/CyclinD1 and 6.00 to 7.00 at CDK6/CyclinD3.

Consider `Cc1cnc(N[C@@H]2CCOC[C@H]2O)nc1-c1cc(F)c2nc(C)c3c(c2c1)CNC(C)(C)C3` [Example 104], for which the results for the pIC50 at CDK4/CyclinD1 and on CDK6/CyclinD3 were 7.00 to 8.00 and ≤ 6.00, respectively.

For `Cc1nc2c(F)cc(-c3nc(N[C@@H]4CCOC[C@H]4O)ncc3Cl)cc2cc1C(C)NC1CC1` (single isomer, unassigned) [Example 73a], the pIC50 is 7.00 to 8.00 on CDK4/CyclinD1 and 6.00 to 7.00 at CDK6/CyclinD3.

Regarding `Cc1c(C(C)O)cnc2c(F)cc(-c3nc(N[C@@H]4CCOC[C@H]4O)ncc3Cl)cc12` (single isomer, unassigned) [Example 88b], the pIC50 is > 8.00 on CDK4/CyclinD1 and 7.00 to 8.00 at CDK6/CyclinD3.

Take `CC(C)(O)C1COc2c(F)cc(-c3nc(N[C@@H]4CCOC[C@H]4O)ncc3Cl)cc2C1` (stereo partly drawn) [Example 47]: the figures for the pIC50 on CDK4/CyclinD1 and at CDK6/CyclinD3 were 7.00 to 8.00 and 6.00 to 7.00, respectively.

As for `CC1NCCc2cnc3c(F)cc(-c4nc(N[C@@H]5CCOC[C@H]5O)ncc4Cl)cc3c21` (single isomer, unassigned) [Example 31a], the results for the pIC50 on CDK4/CyclinD1 and at CDK6/CyclinD3 were 7.00 to 8.00 and ≤ 6.00, respectively.

As to `O[C@@H]1COCC[C@H]1Nc1ncc(Cl)c(-c2cc(F)c3ncc(-c4ncc[nH]4)cc3c2)n1` [Example 28], the pIC50 was 7.00 to 8.00 on CDK4/CyclinD1 and 6.00 to 7.00 on CDK6/CyclinD3.

Regarding `Cc1nc2c(F)cc(-c3nc(N[C@@H]4CCOC[C@H]4O)ncc3Cl)cc2c2c1CCNC2` [Example 33], the values for the pIC50 on CDK4/CyclinD1 and at CDK6/CyclinD3 were > 8.00 and 6.00 to 7.00, respectively.

For the compound `[2H]C1([2H])NC(C)(C)Cc2cnc3c(F)cc(-c4nc(N[C@@H]5CCOC[C@H]5O)ncc4F)cc3c21` [Example 62, (3S,4R)-4-((5-fluoro-4-(7-fluoro-3,3-dimethyl-1,2,3,4-tetrahydrobenzo[c][2,6]naphthyridin-9-yl-1,1-d2)pyrimidin-2-yl)amino)tetrahydro-2H-pyran-3-ol], the pIC50 is > 8.00 at CDK4/CyclinD1 and 7.00 to 8.00 on CDK6/CyclinD3.

Turning to `COC1c2cnc3c(F)cc(-c4nc(N[C@@H]5CCOC[C@H]5O)ncc4F)cc3c2CNC1(C)C` (single isomer, unassigned) [Example 108a], the pIC50 on CDK4/CyclinD1 was 7.00 to 8.00; on CDK6/CyclinD3, ≤ 6.00.

Regarding `Cc1nc2c(F)cc(-c3ccnc(N[C@@H]4CCOC[C@H]4O)n3)cc2c(C)c1C(C)O` (single isomer, unassigned) [Example 82a], the pIC50 at CDK4/CyclinD1 was 7.00 to 8.00; on CDK6/CyclinD3, 6.00 to 7.00.

In the case of `CNC(C)c1cnc2c(F)cc(-c3nc(N[C@@H]4CCOC[C@H]4O)ncc3F)cc2c1C` (single isomer, unassigned) [Example 59b], the pIC50 on CDK4/CyclinD1 was 7.00 to 8.00; on CDK6/CyclinD3, 6.00 to 7.00.

`CN1Cc2c(cnc3c(F)cc(-c4nc(N[C@@H]5CCOC[C@H]5O)ncc4Cl)cc23)C(O)C1(C)C` (single isomer, unassigned) [Example 111a]: the pIC50 on CDK4/CyclinD1 was 7.00 to 8.00; at CDK6/CyclinD3, 6.00 to 7.00.

As to `Cc1c(C(C)NC2CC2)cnc2c(F)cc(-c3nc(N[C@@H]4CCOC[C@H]4O)ncc3Cl)cc12` (single isomer, unassigned) [Example 91a], the pIC50 on CDK4/CyclinD1 was 7.00 to 8.00; on CDK6/CyclinD3, 6.00 to 7.00.

Turning to `[2H]c1nc2c(F)cc(-c3ccnc(N[C@@H]4CCOC[C@H]4O)n3)cc2c2c1CC1(CC1)NC2` [Example 66], the pIC50 at CDK4/CyclinD1 is 7.00 to 8.00; on CDK6/CyclinD3 it was 6.00 to 7.00.

Take `Cc1cc(C(C)(C)O)c2cc(-c3nc(N[C@@H]4CCOC[C@H]4O)ncc3F)cc(F)c2n1` [Example 76]: the results for the pIC50 at CDK4/CyclinD1 and on CDK6/CyclinD3 were 7.00 to 8.00 and 6.00 to 7.00, respectively.

With `CN1Cc2c(cnc3c(F)cc(-c4nc(N[C@@H]5CCOC[C@H]5O)ncc4Cl)cc23)C(O)C1(C)C` (single isomer, unassigned) [Example 111b], the figures for the pIC50 at CDK4/CyclinD1 and on CDK6/CyclinD3 were 6.00 to 7.00 and ≤ 6.00, respectively.

On to `CC(C)(O)c1cnc2c(F)cc(-c3nc(Nc4ccc(C(=O)CO)cn4)ncc3F)cc2c1Cl` [Example 80], for which the pIC50 was 7.00 to 8.00 on CDK4/CyclinD1 and ≤ 6.00 on CDK6/CyclinD3.

With `CC(C)(O)c1cnc2ccc(-c3nc(N[C@@H]4CCOC[C@H]4O)ncc3Cl)cc2c1` [Example 6, (3S,4R)-4-((5-chloro-4-(3-(2-hydroxypropan-2-yl)quinolin-6-yl)pyrimidin-2-yl)amino)tetrahydro-2H-pyran-3-ol], the pIC50 on CDK4/CyclinD1 is 7.00 to 8.00; on CDK6/CyclinD3, 6.00 to 7.00.
